Where two headings read alike, the source gives them in different places.
Legend:
[1] = tested on: T. brucei (S427 single marker line); assay: microbe, parasite or virus in culture; assay type: cell-based, Trypanosoma brucei; conditions: for EC50: Trypanosoma brucei
[2] = tested on: MRC-5 cell line (normal diploid human fibroblasts); assay: cells; assay type: cell-based; conditions: MRC5, read-out: pEC50 MRC-5 (converted)
[3] = tested on: T. brucei; conditions: cited from earlier work

With `O=C(Cc1ccc(Cl)c(Cl)c1)Nc1ccccc1N1CCCC1` [Compound 44, 2-(3,4-Dichlorophenyl)-N-[2-(pyrrolidin-1-yl)phenyl]acetamide] the “fold loss of potency relative to 38” value [1] was > 66 fold and the EC50 ([1]; 72 h, read-out: EC50 T. b. brucei) was 17700 nM.
Molecule `N=C(N)c1ccc(OCCCCCOc2ccc(C(=N)N)cc2)cc1` [Pentamidine] has an EC50 ([1]; read-out: pEC50 T. brucei (converted)) of 3.55 nM.
For `COc1cccc2c1C(=O)c1c(O)c3c(c(O)c1C2=O)C[C@@](O)(C(=O)CO)C[C@@H]3O[C@H]1C[C@H](N)[C@H](O)[C@H](C)O1` [doxorubicin], the EC50 [2] was 70.8 nM.
For `NCCCC(N)(C(=O)O)C(F)F` (centres unmarked) [eflornithine], the “Hill slope (s)” value [3] is listed as 4.0.

— publication PMC3229842 (Chemmedchem, 2011)
